Reference: US6448442B1, “Contrast media” (Amersham Health AS, priority 1999, dated 2002)

Tests used:
[1] = Solubility (remark in Table 2); assay type: physicochemical; conditions: aqueous solution, no viscosity given
[2] = Viscosity in aqueous solution at 20° C. (Example 82, Tables 1 and 2); assay type: physicochemical; conditions: for Viscosity 350 mgI/ml (CALCULATED): calculated for 350 mgI/ml; for Viscosity at 400 mgI/ml (CALCULATED): calculated for 400 mgI/ml
Protocol: The viscosities in aqueous solution at 20° C. for some further compounds described above were determined and are listed in Table 2. […]

[3] = Viscosity at 37° C. (Table 3); assay type: physicochemical; conditions: for Viscosity at 350 mgI/ml (CALCULATED): calculated for 350 mgI/ml
[4] = 350 mgI/ml, 20° C., data from literature; cited from earlier work

Row | SMILES | Viscosity 350 mgI/ml (CALCULATED) [2] [mPas] | Viscosity at 400 mgI/ml (CALCULATED) [2] [mPas] | Viscosity at 350 mgI/ml (CALCULATED) [3] [mPa·s] | also measured
1 | OCc1cc(OCC(O)CO)c(I)c(OCC(O)CO)c1I (centres unmarked) [Example 78, 3,5-Bis-(2,3-dihydroxypropyloxy)-2,4-diiodobenzyl alcohol] |  |  |  | solubility [1]: low solubility
2 | O=C(Nc1c(I)c(CO)c(I)c(NC(=O)C(O)C(O)CO)c1I)C(O)C(O)CO (centres unmarked) [Example 79, N,N′-Bis-(2,3,4-trihydroxybutanoyl)-3,5-diamino-2,4,6-triiodobenzyl alcohol] | 10.4 | 17.2 | 5.9 | Viscosity 20° C. ([2]; concentration 379 mgI/ml): 14.4 mPas; Viscosity 37° C. ([3]; 379 mgI/ml): 6.9 mPa·s
3 | O=C(NCC(O)CO)c1c(I)c(CO)c(I)c(NC(=O)C(O)C(O)CO)c1I (centres unmarked) [Example 80, 5-[N′-(2,3,4-Trihydroxybutanoyl)amino]-3-hydroxymethyl-N-(2,3-dihydroxypropyl)-2,4,6-triiodobenzamide] | 9.4 | 14.8 | 5.2 | Viscosity 20° C. ([2]; concentration 444 mgI/ml): 23 mPas; Viscosity 37° C. ([3]; 444 mgI/ml): 11 mPa·s
4 | O=C(NC(CO)C(O)CO)c1c(I)c(CO)c(I)c(NC(=O)C(O)C(O)CO)c1I (centres unmarked) [Example 81, 5-[N′-(2,3,4-Trihydroxybutanoyl)-amino]-3-hydroxymethyl-N-(1,3,4-trihydroxybut-2-yl)-2,4,6-triiodobenzamide] | 12.2 | 21.5 | 6.1 | Viscosity 20° C. ([2]; concentration 376 mgI/ml): 16.2 mPas; Viscosity 37° C. ([3]; 376 mgI/ml): 8.9 mPa·s
5 | CN(C(=O)CO)c1c(I)c(C(=O)NCC(O)CO)c(I)c(C(=O)NCC(O)CO)c1I (centres unmarked) [Iomeprol] |  |  |  | Viscosity [4]: 15.4 mPas
